Source: PubChem BioAssay (NCI)
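GI50 is the concentration that inhibits growth by half. Definition used: TGI = concentration required for complete inhibition of growth.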

Experiments:
Assay in all cases: NCI anticancer screen, dose series, 384-well format
[1] = tested on: MDA-MB-231 breast
[2] = tested on: NCI-H522 lung
[3] = tested on: UACC-257 melanoma
[4] = tested on: MALME-3M melanoma
[5] = tested on: HL-60(TB) leukemia
[6] = tested on: OVCAR-3 ovarian
[7] = tested on: SN12C renal
[8] = tested on: NCI-H23 lung
[9] = tested on: SK-MEL-28 melanoma
[10] = tested on: BT-549 breast
[11] = tested on: SF-295 CNS
[12] = tested on: HT29 colon
[13] = tested on: SF-539 CNS
[14] = tested on: ACHN renal
[15] = tested on: MDA-MB-435 melanoma
[16] = tested on: CAKI-1 renal
[17] = tested on: SNB-19 CNS
[18] = tested on: OVCAR-4 ovarian
[19] = tested on: UACC-62 melanoma
[20] = tested on: A498 renal
[21] = tested on: DU-145 prostate
[22] = tested on: IGROV1 ovarian
[23] = tested on: M14 melanoma
[24] = tested on: NCI-H460 NSCLC
[25] = tested on: OVCAR-8 ovarian
[26] = tested on: SNB-75 CNS
[27] = tested on: LOX IMVI melanoma
[28] = tested on: KM12 colon
[29] = tested on: MCF7 breast
[30] = tested on: COLO 205 colon
[31] = tested on: HCC-2998 colon
[32] = tested on: SF-268 CNS
[33] = tested on: MDA-MB-468 breast
[34] = tested on: NCI-H322M lung
[35] = tested on: RXF 393 renal
[36] = tested on: A549 NSCLC
[37] = tested on: SK-OV-3 ovarian
[38] = tested on: NCI-H226 lung
[39] = tested on: EKVX NSCLC
[40] = tested on: OVCAR-5 ovarian
[41] = tested on: HCT-116 colon
[42] = tested on: HOP-92 NSCLC
[43] = tested on: SK-MEL-2 melanoma
[44] = tested on: U251 glioblastoma
[45] = tested on: TK-10 renal
[46] = tested on: PC-3 prostate
[47] = tested on: UO-31 renal
[48] = tested on: 786-0 renal
[49] = tested on: HS 578T breast
[50] = tested on: K-562 leukemia
[51] = tested on: T-47D breast
[52] = tested on: HCT-15 colon
[53] = tested on: MOLT-4 leukemia
[54] = tested on: HOP-62 NSCLC
[55] = tested on: SW-620 colon

O=C(CCCCCCC(=O)Nc1ccccc1)NO
GI50 [1]: 1.09 µM | TGI [1]: 2.91 µM | GI50 [2]: 0.431 µM | TGI [2]: 1.78 µM | GI50 [3]: 0.626 µM | TGI [3]: 2.45 µM | GI50 [4]: 0.4 µM | TGI [4]: 1.46 µM | GI50 [5]: 0.348 µM | TGI [5]: 0.733 µM | GI50 [6]: 1.57 µM | TGI [6]: 4.24 µM | GI50 [7]: 1.81 µM | TGI [7]: 4.22 µM | GI50 [8]: 1.37 µM | TGI [8]: 3.99 µM | GI50 [9]: 0.988 µM | TGI [9]: 2.52 µM | GI50 [10]: 2.49 µM | TGI [10]: 7.02 µM | GI50 [11]: 1.81 µM | TGI [11]: 6.07 µM | GI50 [12]: 1.37 µM | TGI [12]: 3.12 µM | GI50 [13]: 2.04 µM | TGI [13]: 12.3 µM | GI50 [14]: 1.33 µM | TGI [14]: 3.59 µM | GI50 [15]: 1.54 µM | TGI [15]: 3.39 µM | GI50 [16]: 0.704 µM | TGI [16]: 2.12 µM | GI50 [17]: 1.99 µM | TGI [17]: 5.21 µM | GI50 [18]: 3.15 µM | TGI [18]: 8.55 µM | GI50 [19]: 0.467 µM | TGI [19]: 1.57 µM | GI50 [20]: 1.52 µM | TGI [20]: 3.42 µM | GI50 [21]: 0.729 µM | TGI [21]: 2.32 µM | GI50 [22]: 0.886 µM | TGI [22]: 2.35 µM | GI50 [23]: 1.49 µM | TGI [23]: 7.78 µM | GI50 [24]: 0.876 µM | TGI [24]: 4.81 µM | GI50 [25]: 0.486 µM | TGI [25]: 2.4 µM | GI50 [26]: 0.399 µM | TGI [26]: 2.63 µM | GI50 [27]: 1.45 µM | TGI [27]: 2.79 µM | GI50 [28]: 0.329 µM | TGI [28]: 10.7 µM | GI50 [29]: 1.02 µM | TGI [29]: 2.49 µM | GI50 [30]: 1.48 µM | TGI [30]: 2.93 µM | GI50 [31]: 1.65 µM | TGI [31]: 3.98 µM | GI50 [32]: 1.25 µM | TGI [32]: 2.81 µM | GI50 [33]: 0.365 µM | TGI [33]: 1.09 µM | GI50 [34]: 1.51 µM | TGI [34]: 5.81 µM | GI50 [35]: 0.471 µM | TGI [35]: 1.41 µM | GI50 [36]: 1.41 µM | TGI [36]: 4.16 µM | GI50 [37]: 1.68 µM | TGI [37]: 4.15 µM | GI50 [38]: 3.93 µM | TGI [38]: 16.8 µM | GI50 [39]: 3.8 µM | TGI [39]: 28.5 µM | GI50 [40]: 0.853 µM | TGI [40]: 3.05 µM | GI50 [41]: 0.461 µM | TGI [41]: 1.73 µM | GI50 [42]: 1.61 µM | TGI [42]: 3.98 µM | GI50 [43]: 0.369 µM | TGI [43]: 0.982 µM | GI50 [44]: 1.3 µM | TGI [44]: 2.86 µM | GI50 [45]: 1.27 µM | TGI [45]: 4.85 µM | GI50 [46]: 1.48 µM | TGI [46]: 3.93 µM | GI50 [47]: 2.15 µM | TGI [47]: 9.08 µM | GI50 [48]: 2.19 µM | TGI [48]: 10.4 µM | GI50 [49]: 0.736 µM | TGI [49]: 2.23 µM | GI50 [50]: 0.408 µM | TGI [50]: 1.49 µM | GI50 [51]: 0.667 µM | TGI [51]: 2.35 µM | GI50 [52]: 2.53 µM | TGI [52]: 10.3 µM | GI50 [53]: 0.19 µM | TGI [53]: 0.444 µM | GI50 [54]: 1.2 µM | TGI [54]: 4.99 µM | GI50 [55]: 0.948 µM | TGI [55]: 2.27 µM
